# Active and inactive are the calls of the source.
# Columns and labels:
# [1] = target: Glucose-6-phosphate 1-dehydrogenase (Homo sapiens, UniProt P11413); experiment: inhibition of Homo sapiens G6PD, dose series – biochemical, fluorescence, selectivity assay for P. falciparum G6PD inhibitor project, dose response (AID 504792); assay type: functional
# [2] = target: T1, Rac GTPase-activating protein 1 (Homo sapiens, UniProt Q9H0H5); experiment: blockers of MgcRacGAP-driven Rac1 GTP hydrolysis – biochemical, ADP Hunter fluorescence, primary and confirmatory, confirmation (AID 624330); assay type: functional
# T1 sequence (Q9H0H5 whole entry): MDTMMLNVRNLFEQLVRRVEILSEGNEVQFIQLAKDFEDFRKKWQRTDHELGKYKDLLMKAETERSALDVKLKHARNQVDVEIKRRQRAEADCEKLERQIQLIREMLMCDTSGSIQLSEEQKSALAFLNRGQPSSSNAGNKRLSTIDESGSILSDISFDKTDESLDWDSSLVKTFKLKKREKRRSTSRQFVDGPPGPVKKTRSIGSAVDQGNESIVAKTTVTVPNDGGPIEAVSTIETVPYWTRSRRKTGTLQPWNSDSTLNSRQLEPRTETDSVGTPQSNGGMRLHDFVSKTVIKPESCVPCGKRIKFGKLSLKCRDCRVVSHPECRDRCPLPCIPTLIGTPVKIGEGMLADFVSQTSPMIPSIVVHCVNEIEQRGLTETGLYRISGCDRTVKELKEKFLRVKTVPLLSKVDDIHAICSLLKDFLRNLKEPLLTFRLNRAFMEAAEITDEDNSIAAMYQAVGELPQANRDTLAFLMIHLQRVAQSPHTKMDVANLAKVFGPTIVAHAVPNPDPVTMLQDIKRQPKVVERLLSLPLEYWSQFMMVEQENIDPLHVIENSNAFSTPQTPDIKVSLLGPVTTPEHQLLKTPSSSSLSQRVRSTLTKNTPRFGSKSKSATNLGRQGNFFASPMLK
# [3] = target: T2, Leucine aminopeptidase (Plasmodium falciparum 3D7, UniProt Q8IL11); experiment: P. falciparum M17LAP inhibitors, primary screen, biochemical, fluorogenic H-Leu-NHMec substrate, 1536-well (AID 1619); assay type: functional
# T2 sequence (Q8IL11 whole entry): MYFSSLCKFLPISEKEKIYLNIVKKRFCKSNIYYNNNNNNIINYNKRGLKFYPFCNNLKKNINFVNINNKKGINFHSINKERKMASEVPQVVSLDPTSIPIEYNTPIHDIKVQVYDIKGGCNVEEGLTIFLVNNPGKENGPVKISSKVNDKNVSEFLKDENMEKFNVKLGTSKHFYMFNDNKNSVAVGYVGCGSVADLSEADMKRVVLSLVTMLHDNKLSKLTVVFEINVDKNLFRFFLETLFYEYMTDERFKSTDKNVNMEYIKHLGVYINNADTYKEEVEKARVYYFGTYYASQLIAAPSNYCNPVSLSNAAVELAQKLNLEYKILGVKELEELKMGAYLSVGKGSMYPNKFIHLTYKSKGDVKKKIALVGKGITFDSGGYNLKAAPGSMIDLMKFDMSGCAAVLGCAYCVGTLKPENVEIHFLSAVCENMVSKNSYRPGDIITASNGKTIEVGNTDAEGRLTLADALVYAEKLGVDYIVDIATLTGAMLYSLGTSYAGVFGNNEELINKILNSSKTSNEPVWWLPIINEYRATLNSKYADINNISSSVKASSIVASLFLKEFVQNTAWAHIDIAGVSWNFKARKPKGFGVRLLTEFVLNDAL
# [4] = growth inhibition of yeast DHODH-expressing 3D7 parasites – SYBR Green, dry powder samples, dose response (AID 1159570); assay type: functional, cell-based;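 further: parasite growth measured after 72 hours of compound exposure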
# [5] = P. falciparum Dd2 growth inhibitors, dose response, SYBR Green, cherry-picked samples (AID 1159567); assay type: functional, cell-based
# [6] = Dd2 malaria parasite growth inhibition potency – SYBR Green, dry powder samples, dose response (AID 1159566); assay type: functional, cell-based;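 further: potency for growth inhibition with lower SYBR green DNA signal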
# [7] = growth inhibition of PfATP4-mutant resistant parasites – NITD609-resistant line, SYBR Green, dry powder, dose response (AID 1159571); assay type: functional, cell-based;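 further: parasites synchronized at ring stage by sorbitol before testing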
# [8] = A549 cell cytotoxicity, dose response, cytotoxicity control, plate reader, cherry-pick, antagonist series (AID 743412); assay type: functional, cell-based
# [9] = Vero E6 cell cytotoxicity, dose response, cytotoxicity control for non-replicating M. tuberculosis project, secondary assay (AID 492998); assay type: functional, VeroE6; conditions: Vero C1008
# [10] = target: T3, Replicative DNA helicase DnaB (Mycobacterium tuberculosis, UniProt P9WMR3); experiment: DnaB intein splicing inhibitors, dose response, biochemical, cell-free fluorescence (AID 449749); assay type: functional
# T3 sequence (P9WMR3 whole entry): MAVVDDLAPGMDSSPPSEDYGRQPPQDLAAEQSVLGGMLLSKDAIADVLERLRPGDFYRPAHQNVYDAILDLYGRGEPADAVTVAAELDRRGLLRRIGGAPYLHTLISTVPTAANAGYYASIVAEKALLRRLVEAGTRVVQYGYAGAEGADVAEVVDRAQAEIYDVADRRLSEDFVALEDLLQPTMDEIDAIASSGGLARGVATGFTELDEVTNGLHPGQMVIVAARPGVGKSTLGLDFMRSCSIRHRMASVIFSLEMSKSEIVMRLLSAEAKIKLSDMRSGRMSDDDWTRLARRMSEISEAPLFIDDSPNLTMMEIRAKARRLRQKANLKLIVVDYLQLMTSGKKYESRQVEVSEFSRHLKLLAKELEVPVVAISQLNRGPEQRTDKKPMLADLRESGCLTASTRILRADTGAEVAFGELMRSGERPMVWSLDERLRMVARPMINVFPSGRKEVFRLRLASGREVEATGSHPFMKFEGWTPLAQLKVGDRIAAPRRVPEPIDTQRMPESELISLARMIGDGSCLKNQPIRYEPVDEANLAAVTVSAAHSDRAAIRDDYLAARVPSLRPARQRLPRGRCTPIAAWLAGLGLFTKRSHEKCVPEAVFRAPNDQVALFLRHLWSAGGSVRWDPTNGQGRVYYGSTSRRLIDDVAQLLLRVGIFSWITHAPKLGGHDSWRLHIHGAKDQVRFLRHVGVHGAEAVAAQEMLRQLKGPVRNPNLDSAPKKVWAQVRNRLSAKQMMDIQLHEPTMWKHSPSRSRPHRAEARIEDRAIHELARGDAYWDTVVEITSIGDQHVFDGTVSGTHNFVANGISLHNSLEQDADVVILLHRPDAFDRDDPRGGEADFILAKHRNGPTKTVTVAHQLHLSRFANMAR
# [11] = target: T4, Protein RecA (Mycobacterium tuberculosis, UniProt P9WHJ3); experiment: Fluorescence Cell-Free Homogeneous Dose Retest to Identify Inhibitors of RecA-Intein Splicing Activity. [Related pubchem assays (depositor defined):AID2097, AID2223, AID489010, AID492950]; assay type: functional
# T4 sequence (P9WHJ3 whole entry): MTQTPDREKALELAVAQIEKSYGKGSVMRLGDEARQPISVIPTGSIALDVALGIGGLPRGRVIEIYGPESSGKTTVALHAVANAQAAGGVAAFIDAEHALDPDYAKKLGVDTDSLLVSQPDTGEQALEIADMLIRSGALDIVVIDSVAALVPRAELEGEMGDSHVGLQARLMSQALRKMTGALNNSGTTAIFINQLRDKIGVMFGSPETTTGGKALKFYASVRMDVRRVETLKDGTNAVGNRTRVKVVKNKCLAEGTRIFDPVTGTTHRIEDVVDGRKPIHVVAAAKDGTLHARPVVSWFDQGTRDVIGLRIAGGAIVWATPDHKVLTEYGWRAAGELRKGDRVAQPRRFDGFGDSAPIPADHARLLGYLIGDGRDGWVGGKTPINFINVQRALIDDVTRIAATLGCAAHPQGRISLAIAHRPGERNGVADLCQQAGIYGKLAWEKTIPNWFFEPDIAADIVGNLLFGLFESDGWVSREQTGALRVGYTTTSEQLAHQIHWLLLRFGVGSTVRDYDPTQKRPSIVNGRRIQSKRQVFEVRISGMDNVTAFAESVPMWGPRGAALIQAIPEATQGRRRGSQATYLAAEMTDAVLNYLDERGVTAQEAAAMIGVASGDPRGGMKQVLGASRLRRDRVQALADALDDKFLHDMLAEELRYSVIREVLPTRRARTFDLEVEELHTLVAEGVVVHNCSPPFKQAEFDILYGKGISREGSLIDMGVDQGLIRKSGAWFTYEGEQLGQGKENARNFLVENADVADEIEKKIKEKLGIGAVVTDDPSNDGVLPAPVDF
# [12] = target: Peroxisome proliferator-activated receptor gamma/Nuclear receptor coactivator 2 (Homo sapiens, UniProt P37231); assay type: functional;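 further: agonist potency for raising coactivator recruitment to the receptor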
# [13] = target: Peroxisome proliferator-activated receptor gamma/Nuclear receptor coactivator 1 (Homo sapiens, UniProt P37231); assay type: functional;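 further: agonist potency as compounds enhance coactivator SRC-1 recruitment to PPARgamma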
# [14] = target: Peroxisome proliferator-activated receptor gamma/Nuclear receptor coactivator 3 (Homo sapiens, UniProt P37231); assay type: functional;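 further: agonist potency for raising coactivator recruitment to the receptor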
# [15] = target: Nonstructural protein 1 (Influenza A virus, UniProt Q194T2); assay type: functional, Influenza A virus (A/California/07/2009(H1N1))
# [16] = viability loss in HeLa cells – cytotoxicity control for MgcRacGAP inhibitor project, dose response (AID 624300); assay type: functional
# [17] = target: Cytochrome P450 3A4 (Homo sapiens, UniProt P08684);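 further: CYP3A4 tested as one member of a cytochrome P450 panel screen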
# [18] = tested on: H9c2; experiment: cells; assay type: functional, cell-based; conditions: Rattus norvegicus, H9c2, Myocardium;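 further: confirmatory concentration-response retest of ultra-high-throughput screening hits for modulation of myocardial damage; cell death induced by hydrogen peroxide oxidative stress; compound pretreatment for 60 min then peroxide exposure for 2 h; potency is for protecting the cells against peroxide damage rather than for killing them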
# [19] = tested on: HEK293; experiment: EBV LMP1 TES2 canonical NF-kB signalling blockers – cell-based, HEK293, luciferase, cherry-pick, dose response (AID 588343); assay type: functional; conditions: Homo sapiens
# [20] = target: T5, Histone-lysine N-methyltransferase NSD2 (Homo sapiens, UniProt O96028); assay type: biochemical
# T5 sequence (O96028 whole entry): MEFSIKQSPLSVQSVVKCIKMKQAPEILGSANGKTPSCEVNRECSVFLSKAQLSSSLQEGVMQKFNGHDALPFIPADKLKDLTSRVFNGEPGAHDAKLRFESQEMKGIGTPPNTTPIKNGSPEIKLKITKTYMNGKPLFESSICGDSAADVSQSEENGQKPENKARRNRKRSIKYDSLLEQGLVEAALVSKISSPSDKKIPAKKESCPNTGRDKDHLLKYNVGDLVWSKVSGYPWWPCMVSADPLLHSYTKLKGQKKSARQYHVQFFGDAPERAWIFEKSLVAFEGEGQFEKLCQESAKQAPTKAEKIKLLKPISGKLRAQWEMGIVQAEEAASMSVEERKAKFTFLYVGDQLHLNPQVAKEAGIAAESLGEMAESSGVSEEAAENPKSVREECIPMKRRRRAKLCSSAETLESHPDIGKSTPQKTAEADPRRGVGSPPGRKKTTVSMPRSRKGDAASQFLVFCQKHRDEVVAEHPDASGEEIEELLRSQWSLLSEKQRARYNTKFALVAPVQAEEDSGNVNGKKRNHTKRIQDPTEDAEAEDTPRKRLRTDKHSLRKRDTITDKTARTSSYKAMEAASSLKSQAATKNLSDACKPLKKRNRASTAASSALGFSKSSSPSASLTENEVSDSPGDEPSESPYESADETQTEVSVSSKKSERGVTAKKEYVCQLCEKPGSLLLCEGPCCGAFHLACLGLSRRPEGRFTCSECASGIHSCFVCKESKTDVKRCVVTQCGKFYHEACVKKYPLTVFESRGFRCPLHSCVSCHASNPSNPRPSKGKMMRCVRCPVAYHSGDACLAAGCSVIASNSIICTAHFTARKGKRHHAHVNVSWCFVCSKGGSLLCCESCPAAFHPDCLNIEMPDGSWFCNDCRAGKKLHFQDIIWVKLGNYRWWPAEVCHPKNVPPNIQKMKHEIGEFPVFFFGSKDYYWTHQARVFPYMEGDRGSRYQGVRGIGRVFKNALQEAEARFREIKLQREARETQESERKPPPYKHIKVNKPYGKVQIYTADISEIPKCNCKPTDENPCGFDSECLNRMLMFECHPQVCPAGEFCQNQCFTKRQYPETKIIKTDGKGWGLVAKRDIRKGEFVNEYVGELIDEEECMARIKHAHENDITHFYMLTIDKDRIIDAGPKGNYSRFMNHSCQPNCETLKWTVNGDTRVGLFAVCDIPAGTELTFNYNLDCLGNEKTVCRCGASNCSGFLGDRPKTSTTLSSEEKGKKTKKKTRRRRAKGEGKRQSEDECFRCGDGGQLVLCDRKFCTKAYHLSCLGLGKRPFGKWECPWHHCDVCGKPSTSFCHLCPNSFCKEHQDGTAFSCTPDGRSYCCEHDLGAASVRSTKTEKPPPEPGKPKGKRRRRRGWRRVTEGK
# Chain of Nonstructural protein 1 (Q194T2 whole entry): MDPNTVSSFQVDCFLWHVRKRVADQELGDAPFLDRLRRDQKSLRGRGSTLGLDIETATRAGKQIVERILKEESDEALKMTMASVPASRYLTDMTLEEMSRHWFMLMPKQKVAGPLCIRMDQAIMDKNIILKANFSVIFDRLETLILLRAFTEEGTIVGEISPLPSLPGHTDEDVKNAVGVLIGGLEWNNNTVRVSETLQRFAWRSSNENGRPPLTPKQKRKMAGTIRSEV
# Chain of Peroxisome proliferator-activated receptor gamma/Nuclear receptor coactivator 2 (P37231 whole entry): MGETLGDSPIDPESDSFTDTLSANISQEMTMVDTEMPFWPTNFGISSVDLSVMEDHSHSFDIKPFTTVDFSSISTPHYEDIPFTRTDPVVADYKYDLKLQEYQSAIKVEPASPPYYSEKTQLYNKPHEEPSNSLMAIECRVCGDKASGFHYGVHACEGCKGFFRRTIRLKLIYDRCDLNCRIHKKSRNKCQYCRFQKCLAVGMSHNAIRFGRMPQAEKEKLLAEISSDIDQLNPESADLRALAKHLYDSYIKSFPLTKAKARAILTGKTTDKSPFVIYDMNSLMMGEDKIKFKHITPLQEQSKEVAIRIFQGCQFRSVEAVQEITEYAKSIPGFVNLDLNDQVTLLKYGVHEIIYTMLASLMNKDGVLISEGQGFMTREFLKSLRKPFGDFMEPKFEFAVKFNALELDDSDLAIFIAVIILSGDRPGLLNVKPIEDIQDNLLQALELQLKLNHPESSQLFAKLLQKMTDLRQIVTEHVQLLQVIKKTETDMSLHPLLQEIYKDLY
# Chain of Peroxisome proliferator-activated receptor gamma/Nuclear receptor coactivator 2 (Q15596 whole entry, further chain): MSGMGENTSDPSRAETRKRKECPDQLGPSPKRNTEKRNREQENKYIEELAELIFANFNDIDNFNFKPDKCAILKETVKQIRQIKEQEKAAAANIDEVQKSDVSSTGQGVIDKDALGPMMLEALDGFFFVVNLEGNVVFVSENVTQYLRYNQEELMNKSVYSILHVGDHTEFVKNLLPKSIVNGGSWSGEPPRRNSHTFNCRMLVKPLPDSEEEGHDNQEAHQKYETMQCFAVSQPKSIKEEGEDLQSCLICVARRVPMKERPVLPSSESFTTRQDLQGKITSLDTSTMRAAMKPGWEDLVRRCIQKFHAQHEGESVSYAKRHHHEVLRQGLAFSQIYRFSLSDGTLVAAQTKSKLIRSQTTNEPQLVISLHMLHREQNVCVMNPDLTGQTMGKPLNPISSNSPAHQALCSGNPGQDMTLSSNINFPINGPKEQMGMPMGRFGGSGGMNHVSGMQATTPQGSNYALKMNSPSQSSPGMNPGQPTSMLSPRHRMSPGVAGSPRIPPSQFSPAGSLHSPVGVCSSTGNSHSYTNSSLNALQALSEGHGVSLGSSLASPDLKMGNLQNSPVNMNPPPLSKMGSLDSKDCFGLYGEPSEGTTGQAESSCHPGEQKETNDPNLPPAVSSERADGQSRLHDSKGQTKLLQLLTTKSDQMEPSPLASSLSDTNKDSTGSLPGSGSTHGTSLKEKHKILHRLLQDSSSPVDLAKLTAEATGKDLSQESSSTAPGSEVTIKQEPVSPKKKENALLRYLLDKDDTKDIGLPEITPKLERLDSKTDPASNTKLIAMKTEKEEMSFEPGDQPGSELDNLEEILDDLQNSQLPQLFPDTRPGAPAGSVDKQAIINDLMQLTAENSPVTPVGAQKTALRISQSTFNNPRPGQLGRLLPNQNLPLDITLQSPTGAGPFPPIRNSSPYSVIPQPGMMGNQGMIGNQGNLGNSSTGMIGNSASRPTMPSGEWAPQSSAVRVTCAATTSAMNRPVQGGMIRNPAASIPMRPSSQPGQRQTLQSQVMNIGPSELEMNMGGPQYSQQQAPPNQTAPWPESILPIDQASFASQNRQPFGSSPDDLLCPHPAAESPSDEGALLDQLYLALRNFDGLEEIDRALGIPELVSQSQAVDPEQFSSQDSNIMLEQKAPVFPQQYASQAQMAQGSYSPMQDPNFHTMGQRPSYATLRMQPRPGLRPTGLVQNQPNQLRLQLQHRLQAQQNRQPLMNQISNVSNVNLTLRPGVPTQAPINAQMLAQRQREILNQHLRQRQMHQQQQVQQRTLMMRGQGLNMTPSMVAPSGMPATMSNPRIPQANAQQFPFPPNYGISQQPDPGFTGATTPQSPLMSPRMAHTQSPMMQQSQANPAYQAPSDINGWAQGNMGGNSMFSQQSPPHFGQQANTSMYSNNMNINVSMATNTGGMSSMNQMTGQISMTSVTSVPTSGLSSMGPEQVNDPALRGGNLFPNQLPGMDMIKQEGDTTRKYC
# Chain of Peroxisome proliferator-activated receptor gamma/Nuclear receptor coactivator 3 (P37231 whole entry): as the sequence (P37231 whole entry) above
# Chain of Peroxisome proliferator-activated receptor gamma/Nuclear receptor coactivator 3 (Q9Y6Q9 whole entry, further chain): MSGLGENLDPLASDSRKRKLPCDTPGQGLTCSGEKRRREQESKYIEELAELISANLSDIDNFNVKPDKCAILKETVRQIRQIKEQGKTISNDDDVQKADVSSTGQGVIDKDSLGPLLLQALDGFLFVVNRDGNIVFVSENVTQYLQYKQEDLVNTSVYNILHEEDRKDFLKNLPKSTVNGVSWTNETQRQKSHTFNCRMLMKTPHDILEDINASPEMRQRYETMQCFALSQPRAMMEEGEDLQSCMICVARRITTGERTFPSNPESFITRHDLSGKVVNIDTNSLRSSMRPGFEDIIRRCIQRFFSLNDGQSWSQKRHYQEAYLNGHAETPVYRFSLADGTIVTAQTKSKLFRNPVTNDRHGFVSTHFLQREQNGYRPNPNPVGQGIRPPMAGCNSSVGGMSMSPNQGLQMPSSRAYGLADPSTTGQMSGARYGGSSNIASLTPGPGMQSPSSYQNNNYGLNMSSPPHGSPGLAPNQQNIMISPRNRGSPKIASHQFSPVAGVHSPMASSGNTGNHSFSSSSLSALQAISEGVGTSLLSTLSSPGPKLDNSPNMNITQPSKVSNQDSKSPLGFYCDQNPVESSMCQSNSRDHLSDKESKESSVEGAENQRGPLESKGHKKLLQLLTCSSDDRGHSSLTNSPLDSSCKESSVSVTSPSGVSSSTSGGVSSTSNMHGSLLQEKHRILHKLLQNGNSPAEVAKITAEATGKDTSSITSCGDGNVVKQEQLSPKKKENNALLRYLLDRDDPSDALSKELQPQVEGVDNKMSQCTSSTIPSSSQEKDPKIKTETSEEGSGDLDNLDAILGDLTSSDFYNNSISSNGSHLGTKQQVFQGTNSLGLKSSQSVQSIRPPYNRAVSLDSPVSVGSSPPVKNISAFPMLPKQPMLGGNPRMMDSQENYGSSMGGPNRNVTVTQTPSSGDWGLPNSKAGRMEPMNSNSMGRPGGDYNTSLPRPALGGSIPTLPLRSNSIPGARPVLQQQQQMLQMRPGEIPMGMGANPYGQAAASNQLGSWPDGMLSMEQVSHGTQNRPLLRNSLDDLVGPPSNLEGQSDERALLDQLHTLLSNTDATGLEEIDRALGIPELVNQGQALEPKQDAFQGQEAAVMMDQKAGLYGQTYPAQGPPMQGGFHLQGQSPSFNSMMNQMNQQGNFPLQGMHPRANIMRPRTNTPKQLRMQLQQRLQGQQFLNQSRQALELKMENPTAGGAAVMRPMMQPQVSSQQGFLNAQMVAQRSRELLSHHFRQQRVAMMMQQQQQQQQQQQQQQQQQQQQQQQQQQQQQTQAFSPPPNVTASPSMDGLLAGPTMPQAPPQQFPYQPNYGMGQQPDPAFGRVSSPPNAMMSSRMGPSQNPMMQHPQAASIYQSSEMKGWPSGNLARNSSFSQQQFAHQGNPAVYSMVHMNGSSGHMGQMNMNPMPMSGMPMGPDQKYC
# Chain of Glucose-6-phosphate 1-dehydrogenase (P11413 whole entry): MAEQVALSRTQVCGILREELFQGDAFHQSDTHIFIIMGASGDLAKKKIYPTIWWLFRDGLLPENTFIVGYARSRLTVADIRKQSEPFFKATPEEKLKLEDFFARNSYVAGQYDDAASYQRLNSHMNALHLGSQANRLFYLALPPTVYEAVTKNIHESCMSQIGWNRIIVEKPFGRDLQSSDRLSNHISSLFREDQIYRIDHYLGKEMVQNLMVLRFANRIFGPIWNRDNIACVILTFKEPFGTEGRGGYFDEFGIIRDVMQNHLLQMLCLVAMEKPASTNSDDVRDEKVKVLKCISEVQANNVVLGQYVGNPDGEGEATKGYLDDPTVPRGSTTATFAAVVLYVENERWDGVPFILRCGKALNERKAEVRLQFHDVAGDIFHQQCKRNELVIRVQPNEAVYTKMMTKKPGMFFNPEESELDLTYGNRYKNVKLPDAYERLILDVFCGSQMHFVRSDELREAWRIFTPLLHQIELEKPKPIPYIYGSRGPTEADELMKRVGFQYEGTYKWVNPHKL
smiles,measurement,setting,value
Cc1[nH]c2ccccc2c1/C=N/Nc1nncn1N,IC50,[1],44.1 µM (inactive)
same,IC50,[2],63.7 µM (active)
O=C1C(C2=NC(C(=O)O)C3C(=O)N(c4ccc(Cl)cc4)C(=O)C23)=C(O)c2ccccc21 (centres undefined),IC50,[3],71.6 µM (active)
Cc1ccc(C(=O)CSc2nnc[nH]2)cc1,IC50,[3],50.5 µM (active)
COc1cccc(CN2CC3(CCN(Cc4ccccn4)CC3)c3c([nH]c4cc(OC)ccc34)[C@@H]2CO)c1,AC50,[4],1.71 µM (active)
same,AC50,[5],1.96 µM (active)
same,AC50,[6],1.79 µM (active)
same,AC50,[7],2.04 µM (active)
Cn1nnnc1SCC(=O)N1CCN(C(=O)c2ccco2)CC1,AC50,[8],> 52 µM (inactive)
CC(C)(C)c1ccc(C(=O)N2CCCC2)s1,CC50,[9],> 20 µM (active)
Cc1c(Cl)cccc1NC(=O)CSCc1cc(=O)[nH][nH]1,IC50,[3],62.3 µM (active)
same,AC50,[10],> 380 µM (inactive)
same,EC50,[11],> 380 µM (inconclusive)
CN(C)c1ccc(/N=C/C=C2\N(C)c3ccccc3C2(C)C)cc1,EC50,[12],> 79.4 µM (not active)
same,EC50,[13],> 79.4 µM (not active)
same,EC50,[14],> 79.4 µM (not active)
same,IC50,[15],13.8 µM (active)
same,CC50,[16],100 µM (active)
same,IC50,[2],12.2 µM (active)
same,AC50,[17],15.8 µM (inconclusive)
CCOC(=O)c1ccc(N2N=C(C)/C(=C/C=C/c3ccco3)C2=O)cc1,IC50,[15],> 100 µM (active)
COc1c(O)cccc1/C=N/NC(=O)Cn1ccnc1C,IC50,[15],20.4 µM (active)
same,IC50,[18],> 79 µM (inactive)
COc1ccc(C(c2c(C)n(C)n(-c3ccccc3)c2=O)c2c(C)n(C)n(-c3ccccc3)c2=O)c(OC)c1OC,AC50,[19],344 µM (active)
Cc1cc(SCC(=O)c2ccc(O)c(O)c2)nc2ccccc12,CC50,[16],100 µM (active)
same,IC50,[2],58.2 µM (active)
same,AC50,[20],6.7 µM (active)
COc1cc(CNCCc2ccc3c(c2)OCO3)cc(OC)c1OC,CC50,[16],100 µM (active)
same,IC50,[2],127 µM (active)
